Data taken from article PMC9933482 (ACS Omega, 2023).
In brackets after ≈: the same amount, converted by molar mass. Entries after “also recorded” stand apart in the source; their conditions may differ.

How the values were obtained:
MCF-7 cell line = assay: MTT cytotoxicity assay, MCF-7; assay type: cell-based, human; details: for IC50: Homo sapiens, MCF7, 24 h, read-out: IC50 in μg/mL MCF-7, MTT, 24 h treatment
HePG-2 cell line = assay: MTT cytotoxicity assay, HePG-2; assay type: cell-based, human; details: for IC50: Homo sapiens, HepG2, 24 h, read-out: IC50 in μg/mL HePG-2, MTT, 24 h treatment
[1] = test system: human lung fibroblast cell line WI38; assay: MTT cell viability, normal lung fibroblast WI38; assay type: cell-based; details: WI-38, read-out: IC50 in μg/mL WI38
[2] = molecular target: human carbonic anhydrase IX (hCAIX) (Homo sapiens, UniProt Q16790); assay: biochemical
[3] = molecular target: recombinant human carbonic anhydrase XII (hCAXII) (Homo sapiens, UniProt O43570); assay: hCAXII enzyme inhibition assay; assay type: biochemical
Sequence of recombinant human carbonic anhydrase XII (hCAXII) (O43570 25-291): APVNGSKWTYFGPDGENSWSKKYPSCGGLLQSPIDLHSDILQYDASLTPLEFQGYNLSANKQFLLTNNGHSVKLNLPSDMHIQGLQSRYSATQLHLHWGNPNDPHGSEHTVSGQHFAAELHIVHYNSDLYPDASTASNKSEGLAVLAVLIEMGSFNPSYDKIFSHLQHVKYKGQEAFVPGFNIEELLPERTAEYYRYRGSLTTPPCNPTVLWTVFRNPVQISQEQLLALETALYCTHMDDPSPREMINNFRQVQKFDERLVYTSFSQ

IC50 [2]	IC50 [3]	Structure (SMILES)	IC50 (MCF-7 cell line)	IC50 (HePG-2 cell line)	IC50 [1]	anticancer/cytotoxic activity in words, MCF-7 (MCF-7 cell line)	anticancer/cytotoxic activity in words, HePG-2 (HePG-2 cell line)	IC50 in μg/mL MCF-7 (MCF-7 cell line; MTT, 24 h treatment)	IC50 in μg/mL HePG-2 (HePG-2 cell line; MTT, 24 h treatment)
–	–	O=C1C2Sc3[nH]c(=O)sc3C(c3cn(-c4ccccc4)nc3-c3ccccc3)C2C(=O)N1c1ccccc1 (centres unmarked) [compound 5a, 8-(1,3-Diphenyl-1H-pyrazol-4-yl)-6-phenyl-7a,8-dihydropyrrolo[3′,4′:5,6]-thiopyrano[2,3-d]thiazole-2,5,7(3H,4aH,6H)-trione]	30.3 ± 0.4 µg/mL (≈ 56.5 µM)	38.4 ± 2.1 µg/mL (≈ 71.6 µM)	65.7 ± 1.1 µg/mL (≈ 122 µM)	–	–	–	–
133 ± 6 nM	409 ± 22 nM	CCOC(=O)C1CSc2[nH]c(=O)sc2C1c1cn(-c2ccccc2)nc1-c1ccc(OC)cc1 (centres unmarked) [compound 7h, Ethyl 7-(3-(4-Methoxyphenyl)-1-phenyl-1H-pyrazol-4-yl)-2-oxo-3,5,6,7-tetrahydro-2H-thiopyrano[2,3-d]thiazole-6-carboxylate]	11.4 ± 1.5 µg/mL (≈ 23 µM)	12.2 ± 1.1 µg/mL (≈ 24.7 µM)	25.3 ± 2.2 µg/mL (≈ 51.3 µM)	strong cytotoxicity	strong cytotoxicity	–	–
336 ± 16 nM	604 ± 33 nM	Cc1ccc(-c2nn(-c3ccccc3)cc2C2c3sc(=O)[nH]c3SC3C(=O)N(c4ccccc4)C(=O)C32)cc1 (centres unmarked) [compound 5d, 8-(3-(4-Methylphenyl)-1-phenyl-1H-pyrazol-4-yl)-6-phenyl-7a,8-dihydro-pyrrolo[3′,4′:5,6]-thiopyrano[2,3-d]thiazole-2,5,7(3H,4aH,6H)-trione]	25.4 ± 2.1 µg/mL (≈ 46.1 µM)	21.3 ± 1.8 µg/mL (≈ 38.7 µM)	49.9 ± 3.4 µg/mL (≈ 90.5 µM)	good cytotoxic effect	good cytotoxic effect	25.95 ± 2.8 µg/mL (≈ 47.1 µM)	–
–	–	COc1ccc(-c2nn(-c3ccccc3)cc2C2c3sc(=O)[nH]c3SC3C(=O)N(c4ccccc4)C(=O)C32)cc1 (centres unmarked) [compound 5e, 8-(3-(4-Methoxyphenyl)-1-phenyl-1H-pyrazol-4-yl)-6-phenyl-7a,8-dihydro-pyrrolo-[3′,4′:5,6]thiopyrano[2,3-d]thiazole-2,5,7(3H,4aH,6H)-trione]	35.7 ± 72 µg/mL (≈ 63 µM)	30.7 ± 0.3 µg/mL (≈ 54.2 µM)	51.7 ± 3.7 µg/mL (≈ 91.2 µM)	–	–	–	–
–	–	COc1ccc(-c2nn(-c3ccccc3)cc2C2c3sc(=O)[nH]c3SCC2C#N)cc1 (centres unmarked) [7c, 7-(3-(4-Methoxyphenyl)-1-phenyl-1H-pyrazol-4-yl)-2-oxo-3,5,6,7-tetra-hydro-2H-thiopyrano[2,3-d]thiazole-6-carbonitrile]	29.4 ± 1.1 µg/mL (≈ 65.9 µM)	24.1 ± 2.9 µg/mL (≈ 54 µM)	51.9 ± 3.4 µg/mL (≈ 116 µM)	–	–	–	–
–	–	COc1ccc(-c2nn(-c3ccccc3)cc2C=C2SC(=O)NC2=S)cc1 [compound 3c, 5-[(3-(4-Methoxyphenyl)-1-phenyl-1H-pyrazol-4-yl)methylene]-4-thioxo-2-thiazolidinone]	37.6 ± 3.4 µg/mL (≈ 95.5 µM)	31.2 ± 2.6 µg/mL (≈ 79.3 µM)	64.5 ± 3.8 µg/mL (≈ 164 µM)	moderate activity	moderate activity	–	–
928 ± 45 nM	1050 ± 57 nM	CCOC(=O)C1CSc2[nH]c(=O)sc2C1c1cn(-c2ccccc2)nc1-c1ccccc1 (centres unmarked) [compound 7f, Ethyl 7-(1,3-Diphenyl-1H-pyrazol-4-yl)-2-oxo-3,5,6,7-tetrahydro-2H-thiopyrano[2,3-d]thiazole-6-carboxylate]	15.9 ± 2.3 µg/mL (≈ 34.3 µM)	13.4 ± 1.2 µg/mL (≈ 28.8 µM)	44.5 ± 4.5 µg/mL (≈ 96 µM)	moderate anticancer activity	moderate anticancer activity	–	–
–	–	O=C1NC(=S)C(=Cc2cn(-c3ccccc3)nc2-c2ccccc2)S1 [compound 3a, 5-[(1,3-Diphenyl-1H-pyrazol-4-yl)methylene]-4-thioxo-2-thiazolidinone]	52.1 ± 3.1 µg/mL (≈ 143 µM)	65.8 ± 3.3 µg/mL (≈ 181 µM)	28.2 ± 2.3 µg/mL (≈ 77.6 µM)	weak activity	weak activity	–	–
239 ± 30 nM	589 ± 30 nM	CCOC(=O)C1CSc2[nH]c(=O)sc2C1c1cn(-c2ccccc2)nc1-c1ccc(Br)cc1 (centres unmarked) [compound 7j, Ethyl 7-(3-(4-Bromophenyl)-1-phenyl-1H-pyrazol-4-yl)-2-oxo-3,5,6,7-tetra-hydro-2H-thiopyrano[2,3-d]thiazole-6-carboxylate]	11.8 ± 4 µg/mL (≈ 21.8 µM)	10.3 ± 4.8 µg/mL (≈ 18.9 µM)	33.8 ± 2.5 µg/mL (≈ 62.2 µM)	strong cytotoxicity	strong cytotoxicity	–	–
–	–	O=C1C2Sc3[nH]c(=O)sc3C(c3cn(-c4ccccc4)nc3-c3ccc(Cl)cc3)C2C(=O)N1c1ccccc1 (centres unmarked) [compound 5f, 8-(3-(4-Chlorophenyl)-1-phenyl-1H-pyrazol-4-yl)-6-phenyl-7a,8-dihydro-pyrrolo[3′,4′:5,6]-thiopyrano[2,3-d]thiazole-2,5,7(3H,4aH,6H)-trione]	25.4 ± 2.1 µg/mL (≈ 44.5 µM)	29 ± 2.1 µg/mL (≈ 50.8 µM)	43 ± 3.1 µg/mL (≈ 75.3 µM)	almost moderate activity	almost moderate activity	–	–
–	–	Cc1ccc(-c2nn(-c3ccccc3)cc2C=C2SC(=O)NC2=S)cc1 [compound 3b, 5-[(3-(4-Methylphenyl)-1-phenyl-1H-pyrazol-4-yl)methylene]-4-thioxo-2-thiazolidinone]	56.3 ± 3.4 µg/mL (≈ 149 µM)	62.2 ± 3.2 µg/mL (≈ 165 µM)	25.3 ± 2.1 µg/mL (≈ 66.9 µM)	weak activity	weak activity	–	–
–	–	COc1cccc2c1C(=O)c1c(O)c3c(c(O)c1C2=O)C[C@@](O)(C(=O)CO)C[C@@H]3O[C@H]1C[C@H](N)[C@H](O)[C@H](C)O1 [doxorubicin, reference compound]	–	–	8.87 ± 0.6 µg/mL (≈ 16.3 µM)	–	–	–	–
–	–	O=C1C2Sc3[nH]c(=O)sc3C(c3cn(-c4ccccc4)nc3-c3ccc(Br)cc3)C2C(=O)N1c1ccccc1 (centres unmarked) [compound 5g, 8-(3-(4-Bromophenyl)-1-phenyl-1H-pyrazol-4-yl)-6-phenyl-7a,8-dihydro-pyrrolo[3′,4′:5,6]-thiopyrano[2,3-d]thiazole-2,5,7(3H,4aH,6H)-trione]	42.9 ± 2.7 µg/mL (≈ 69.7 µM)	45 ± 3 µg/mL (≈ 73 µM)	24.9 ± 2 µg/mL (≈ 40.4 µM)	weakly active	weakly active	–	–
–	–	Cc1ccc(-c2nn(-c3ccccc3)cc2C2c3sc(=O)[nH]c3SCC2C#N)cc1 (centres unmarked) [compound 7b, 7-(3-(4-Methylphenyl)-1-phenyl-1H-pyrazol-4-yl)-2-oxo-3,5,6,7-tetra-hydro-2H-thiopyrano-[2,3-d]thiazole-6-carbonitrile]	35 ± 2.3 µg/mL (≈ 81.4 µM)	30.4 ± 1.1 µg/mL (≈ 70.7 µM)	41.4 ± 1.7 µg/mL (≈ 96 µM)	–	–	–	–
–	–	O=C1NC(=S)C(=Cc2cn(-c3ccccc3)nc2-c2ccc(Cl)cc2)S1 [compound 3d, 5-[(3-(4-Chlorophenyl)-1-phenyl-1H-pyrazol-4-yl)methylene]-4-thioxo-2-thiazolidinone]	30.8 ± 2.2 µg/mL (≈ 77.5 µM)	38.2 ± 2.7 µg/mL (≈ 96 µM)	71.2 ± 4.2 µg/mL (≈ 179 µM)	moderate activity	moderate activity	–	–
390 ± 19 nM	566 ± 31 nM	CCOC(=O)C1CSc2[nH]c(=O)sc2C1c1cn(-c2ccccc2)nc1-c1ccc(C)cc1 (centres unmarked) [compound 7g, Ethyl 7-(3-(4-Methylphenyl)-1-phenyl-1H-pyrazol-4-yl)-2-oxo-3,5,6,7-tetrahydro-2H-thiopyrano[2,3-d]thiazole-6-carboxylate]	12.3 ± 2.4 µg/mL (≈ 25.8 µM)	11.9 ± 2.7 µg/mL (≈ 24.9 µM)	30.3 ± 1.7 µg/mL (≈ 63.5 µM)	strong cytotoxicity	strong cytotoxicity	–	–
–	–	N#CC1CSc2[nH]c(=O)sc2C1c1cn(-c2ccccc2)nc1-c1ccccc1 (centres unmarked) [compound 7a, 7-(1,3-Diphenyl-1H-pyrazol-4-yl)-2-oxo-3,5,6,7-tetrahydro-2H-thiopyrano-[2,3-d]thiazole-6-carbonitrile]	23.8 ± 1.9 µg/mL (≈ 57 µM)	26.8 ± 3.3 µg/mL (≈ 64.4 µM)	54.6 ± 3.5 µg/mL (≈ 131 µM)	–	–	–	–
349 ± 11 nM	556 ± 16 nM	O=C1NC(=S)C(=Cc2cn(-c3ccccc3)nc2-c2ccc(Br)cc2)S1 [compound 3e, 5-[(3-(4-Bromophenyl)-1-phenyl-1H-pyrazol-4-yl)methylene]-4-thioxo-2-thiazolidinone]	11.2 ± 1.5 µg/mL (≈ 25.2 µM)	7.83 ± 1.5 µg/mL (≈ 17.7 µM)	41.5 ± 2.9 µg/mL (≈ 93.8 µM)	most potent cytotoxic agent in this series; also recorded: strong anticancer activity	most potent cytotoxic agent in this series; also recorded: strong cytotoxic activity	–	10.66 ± 1.0 µg/mL (≈ 24.1 µM)
–	–	N#CC1CSc2[nH]c(=O)sc2C1c1cn(-c2ccccc2)nc1-c1ccc(Cl)cc1 (centres unmarked) [compound 7d, 7-(3-(4-Chlorophenyl)-1-phenyl-1H-pyrazol-4-yl)-2-oxo-3,5,6,7-tetra-hydro-2H-thiopyrano[2,3-d]thiazole-6-carbonitrile]	67.3 ± 3.7 µg/mL (≈ 149 µM)	73 ± 4.3 µg/mL (≈ 162 µM)	39.5 ± 1.7 µg/mL (≈ 87.6 µM)	weak activity	weak activity	–	–
